The source of these data is patent US20040241098A1, “Fungicidal mixture containing arylamidine derivatives” (priority 2001, published 2004).

Assay [1] deals with Wheat powdery mildew (Erysiphe graminis). As to the kind of experiment: open field trial on wheat, powdery mildew. Format: in vivo. Particulars: natural contamination, measured 59 days after the application. The method, then: (§1) They are intended to give an illustration of the efficacy of the compositions according to the invention on cereal diseases, in particular the compositions combining compound (A), having the chemical name N-ethyl-N-methyl-N′-[4-(chloro-3-trifluoromethylphénoxy)-2,5-xylyl]formamidine, with fungicidal compounds of the triazole and morpholine type. The trials on cereals were carried out in an open field.
(§2) The objective of these field trials is therefore to test the efficacy of compounds (A) of formula (I), in particular N-ethyl-N-methyl-N′-[4-(chloro-3-trifluoromethylphenoxy)-2,5-xylyl]formamidine, alone at 125 g/ha and combined with 2 fungicides which are commercially available: fluquinconazole (100 g/ha) and fenpropimorph (750 g/ha) representing 2 classes of fungicidal compounds. Powdery mildew, brush rust and Septoria disease mycosphaerella graminicola (Septoria tritici) are the principal diseases treated.
The products tested are therefore
N-ethyl-N-methyl-N′-[4-(chloro-3-trifluorométhylphénoxy)-2,5-xylyl]-formamidine as compound (A) at 125 g/ha as an EC type formulation at 100 g/l, fluquinconazole as compound (B) at 100 g/ha as a formulation at 100 g/l, fenpropimorph as another compound (B) at 750 g/ha at 750 g/l, compound (A) and fluquinconazole combination at 125+100 g/ha as a fresh preparation, compound (A) and fenpropimorph combination at 125+750 g/ha, also as a fresh preparation, epoxyconazole+kresoxim-methyl at 125+125 g/ha on the 3 diseases, quinoxyfen at 150 g/ha on powdery mildew.
(§3) Each trial comprises 3 repeats and untreated control plots are included in the experimental design in order to measure the severity of the diseases.
All the trials are conducted under natural contamination conditions. The equipment for application is a constant compressed air pressure back sprayer. The spray nozzles have slits. […]

The test system of assay [2] is powdery mildew, brown rust and Septoria disease. As to the kind of experiment: open field trials on cereals, conclusion over the 3 diseases. It counts as in vivo. Here is the method: as §1, §2, §3
All the trials are conducted under natural contamination conditions. The equipment for application is a constant compressed air pressure back sprayer. The spray nozzles have slits.
The efficacy results are obtained from controls carried out in the field: […]

With `O=c1c2cc(F)ccc2nc(-n2cncn2)n1-c1ccc(Cl)cc1Cl` [Fluquinconazole, fluquinconazole], the “efficacy / persistence of activity on wheat powdery mildew” value (from here on “efficacy / persistence of activity”) in assay [1] is given as “no longer have an activity”.

For the molecule `Fc1ccc(Oc2ccnc3cc(Cl)cc(Cl)c23)cc1` [Quinoxyfen, quinoxyfen], the “efficacy / persistence of activity” value in assay [1] is listed as “low but significant efficacy”.

Consider `CCN(C)C=Nc1cc(C)c(Oc2ccc(Cl)c(C(F)(F)F)c2)cc1C` [compound (A), N-ethyl-N-methyl-N′-[4-(chloro-3-trifluoromethylphénoxy)-2,5-xylyl]formamidine], for which the “effect on persistence of activity of compounds (B)” value in assay [2] (3 major cereal diseases: powdery mildew, brown rust and Septoria disease) is “significantly improve the persistence of activity of compounds (B) fluquinconazole and fenpropimorph”. Besides, in assay [2] (compound alone), the persistence of activity entry is given as “not very persistent by itself”.

With `CC(Cc1ccc(C(C)(C)C)cc1)CN1C[C@@H](C)O[C@@H](C)C1` (some centres unmarked) [fenpropimorph], the “efficacy / persistence of activity” value in assay [1] is reported as “no longer have an activity”.
